# Experimental data from patent US9040557B2, “Composition containing cinchonine as an active ingredient for preventing and treating obesity, dyslipidemia, fatty liver, or insulin resistance syndrome” (YONSEI UNIVERSITY TECHNOLOGY HOLDINGS, INC., priority 2010, dated 2015).
# Marks after values point to notes of the source that are not given here.
# Columns and labels:
# [1] = test system: 3T3-L1 adipocyte precursor cells; assay: Inhibition of adipocyte differentiation, Oil-red O staining; assay type: cell-based, mouse; conditions: 0.1, 1, 10, 50 and 100 μM, fourteen-day culture; for differentiation of 3T3-L1 adipocyte precursor cells: FIG. 1a; for content of intracellular fats stained with Oil-red O (O.D. at 600 nm): FIG. 1b
# C57BL/6J mice [2] = assay: Body and visceral fat-pad weights after 10 weeks of test diet; assay type: in vivo; conditions: 0.05% cinchonine in high-fat diet
# Method: (§1) The obesity-inducing control diet used in the test was high-fat diet (HFD: 40% fat calorie, 17 g lard+3% corn oil/100 g diet). […] The normal diet (ND) was prepared according to the AIN-76 rodent diet composition (American Institute of Nutrition, Report of the American Institute of Nutrition ad hoc committee on standards for nutritional studies. J. Nutr., 107: 1340-1348, (1977)) (FIG. 1). (+)-Cinchonine was purchased from Sigma-Aldrich. 5-week-old male C57BL/6J mice (Orient, Korea) were accustomed to the laboratory environment for 1 week while feeding solid feed. Then, they were randomly divided into a high-fat diet group and a test group according to randomized block design and bred for a total of 10 weeks. The diet was given between 10 and 11 A.M. every day together with water. Food intake was measured every day and body weight was measured once a week. In order to avoid transient body weight increase after feed intake, body weight was measured 2 hr after removing the feed. […] Blood taken from the abdominal aorta was centrifuged at 1000×g for 15 minutes for the separation of plasma.
# C57BL/6J mice [3] = assay: Biochemical analysis of plasma after 10 weeks of test diet; assay type: in vivo
# Method: as §1, with “plasma. […] Total cholesterol, triglyceride, free fatty acid and glucose levels in the plasma were measured twice for each using a commercially available kit (Bio Clinical System). The level of LDL+VLDL in plasma was calculated by subtracting HDL level from the total cholesterol level. The activities of ALT (alanine aminotransferase) and AST (aspartate aminotransferase) used as liver function indicator were measured using a commercially available kit (Bio Clinical System, Korea).” for “plasma.”
# C57BL/6J mice [4] = assay: Liver weight and lipid levels in liver tissue after 10 weeks of test diet; assay type: in vivo
# Method: as §1, with “plasma. Lipids were extracted from the liver tissue according to Folch et al.'s method Folch J et al., J Biol Chem, 226: 497-509 (1957)). […] After adding 5 mL of chloroform:methanol solution (2:1, v/v) to the homogenate and mixing well, the mixture was centrifuged at 1000×g for 10 minutes. […] After adding 3 mL of chloroform:methanol:0.05% CaCl2 (3:48:47, v/v/v) solution to the remaining pellets and mixing well for 1 minute, followed by centrifugation at 1000×g for 10 minutes, the resulting pellets were completely dried with nitrogen gas. The dried lipids were dissolved in 1 mL of methanol and then analyzed. The commercially available kits (Bio Clinical System, Korea) were used to measure the levels of triglyceride, cholesterol and free fatty acids of the liver tissue.” for “plasma.”
# PPARγ2 = assay: RT-PCR of epididymal fat tissues: PPARγ2; assay type: in vivo, mice; conditions: CSID vs HFD, FIG. 4
# Method: (§2) After adding 1 mL of Trizol agent (Invitrogen, USA) per 0.1 g of epididymal fat tissues, the mixture was homogenized and centrifuged at 12,000×g for 10 min at 4° C. The supernatant was transferred to a new tube and 200 μl of chloroform was added to the tube, followed by vortexing. The same procedure was repeated twice and then the supernatant was transferred to a new tube, followed by addition of isopropanol and the supernatant at 1:1 ratio. The mixture was vigorously shaken 10 times and then incubated for 10 min at room temperature, followed by centrifugation at 12,000×g for 10 min at 4° C. to remove the supernatant. After adding 1 mL of 70% ethanol to the remaining pellet, it was centrifuged at 7,500×g for 5 min at 4° C. After removing the ethanol, the RNA pellet contained in the tube was dried for 5 min at 4° C. and dissolved in nuclease-free water. The RNA concentration of sample was measured at a wavelength of 260 nm and 280 nm using a UV/VIS spectrophotometer (Beckman coulter, DU730) and the integrity of RNA sample was verified by agarose gel electrophoresis. The RNA sample obtained from the epididymal fat tissues was transcribed using oligo dT primer and SuperScript reverse transcriptase (GIBCO BRL, Gaithersburg, Md., USA) to synthesize cDNA. The PCR amplification was performed using the cDNA as templates and primers complementary to cDNA [NT] flanking sequence. […]
# C/EBPα = assay: RT-PCR of epididymal fat tissues: C/EBPα; assay type: in vivo, mice; conditions: CSID vs HFD, FIG. 4
# aP2 = assay: RT-PCR of epididymal fat tissues: aP2; assay type: in vivo, mice; conditions: CSID vs HFD, FIG. 4
# Method: as §2
# TNF-α = assay: RT-PCR of visceral fat tissues: TNF-α; assay type: in vivo, mice; conditions: FIG. 5
# Method: as §2
# IL-6 = assay: RT-PCR of visceral fat tissues: IL-6; assay type: in vivo, mice; conditions: FIG. 5
# Method: as §2
# UCP1 = assay: RT-PCR of visceral fat tissues: UCP1; assay type: in vivo, mice; conditions: FIG. 6
# Method: as §2
# UCP3 = assay: RT-PCR of visceral fat tissues: UCP3; assay type: in vivo, mice; conditions: FIG. 6
# Method: as §2
# [5] = test system: P388 multidrug-resistant cells; conditions: cited from earlier work
# Plasmodium falciparum = conditions: cited from earlier work
# human platelets = conditions: cited from earlier work
# [6] = test system: adrenorceptor and Ca^2+ channels; conditions: cited from earlier work
# P-glycoprotein = P-glycoprotein (Homo sapiens, UniProt P08183); conditions: cited from earlier work
# [7] = 0.05% cinchonine in high-fat diet, 10 weeks
# [8] = 0.05% cinchonine in high-fat diet
# Sequence of P-glycoprotein (P08183 whole entry): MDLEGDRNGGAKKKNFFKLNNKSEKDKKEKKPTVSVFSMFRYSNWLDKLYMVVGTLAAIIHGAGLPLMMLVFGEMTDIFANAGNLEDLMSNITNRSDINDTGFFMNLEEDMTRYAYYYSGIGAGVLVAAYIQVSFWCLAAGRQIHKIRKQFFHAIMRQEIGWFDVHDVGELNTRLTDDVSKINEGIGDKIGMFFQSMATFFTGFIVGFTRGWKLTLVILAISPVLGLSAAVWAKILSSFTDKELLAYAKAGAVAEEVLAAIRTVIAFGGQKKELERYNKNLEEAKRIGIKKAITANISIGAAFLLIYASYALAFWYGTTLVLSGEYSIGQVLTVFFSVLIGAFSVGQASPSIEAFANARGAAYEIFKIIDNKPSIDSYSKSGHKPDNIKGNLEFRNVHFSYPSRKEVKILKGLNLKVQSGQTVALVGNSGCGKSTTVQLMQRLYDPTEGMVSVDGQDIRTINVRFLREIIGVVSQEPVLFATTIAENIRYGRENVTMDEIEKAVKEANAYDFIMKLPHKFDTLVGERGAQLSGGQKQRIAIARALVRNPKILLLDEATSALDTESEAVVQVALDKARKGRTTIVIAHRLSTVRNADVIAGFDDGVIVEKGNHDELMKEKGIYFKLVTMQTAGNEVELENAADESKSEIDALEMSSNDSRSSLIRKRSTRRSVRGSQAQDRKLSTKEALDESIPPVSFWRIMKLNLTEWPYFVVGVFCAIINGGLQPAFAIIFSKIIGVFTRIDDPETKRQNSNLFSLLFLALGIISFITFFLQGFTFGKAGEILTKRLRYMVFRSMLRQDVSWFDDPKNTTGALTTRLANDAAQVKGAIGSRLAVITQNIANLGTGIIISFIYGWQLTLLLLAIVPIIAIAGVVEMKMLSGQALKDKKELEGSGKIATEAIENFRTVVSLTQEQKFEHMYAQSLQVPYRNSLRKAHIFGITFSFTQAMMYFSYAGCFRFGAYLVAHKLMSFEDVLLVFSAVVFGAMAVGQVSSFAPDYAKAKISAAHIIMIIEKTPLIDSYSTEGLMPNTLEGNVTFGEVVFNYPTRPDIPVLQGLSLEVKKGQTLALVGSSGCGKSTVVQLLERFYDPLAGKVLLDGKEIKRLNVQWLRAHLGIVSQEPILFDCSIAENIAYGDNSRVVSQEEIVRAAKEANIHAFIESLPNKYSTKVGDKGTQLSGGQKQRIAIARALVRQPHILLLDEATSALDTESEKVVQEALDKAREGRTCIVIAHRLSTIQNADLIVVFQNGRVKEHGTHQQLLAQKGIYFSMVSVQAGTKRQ
structure (smiles),measurement,setting,value
"C=C[C@H]1C[N@@]2CC[C@H]1C[C@@H]2[C@@H](O)c1ccnc2ccccc12 [cinchonine, Cinchonine]",differentiation of 3T3-L1 adipocyte precursor cells,[1],significantly decreases differentiation
same,differentiation of 3T3-L1 adipocyte precursor cells,[1]; listed as (+)-cinchonine,decreased differentiation
same,content of intracellular fats stained with Oil-red O (O.D. at 600 nm),[1],decreased in a dose-dependent manner
same,content of intracellular fats stained with Oil-red O (O.D. at 600 nm),[1]; listed as (+)-cinchonine,decreased
same,decrease in cumulative body weight gain as compared to HFD,C57BL/6J mice [2],39%
same,decrease in final body weight as compared to HFD,C57BL/6J mice [2],20%
same,reduction of epididymal fat-pad weight as compared to HFD,C57BL/6J mice [2],19%
same,reduction of mesenteric fat-pad weight as compared to HFD,C57BL/6J mice [2],43%
same,reduction of perirenal fat-pad weight as compared to HFD,C57BL/6J mice [2],45%
same,reduction of retroperitoneal fat-pad weight as compared to HFD,C57BL/6J mice [2],15%
same,reduction of total visceral fat weight as compared to HFD,C57BL/6J mice [2]; p<0.001,26%
same,decrease of plasma ALT activity as compared to HFD,C57BL/6J mice [3]; [7],58%
same,decrease of plasma AST activity as compared to HFD,C57BL/6J mice [3]; [7],46%
same,lower plasma LDL+VLDL level as compared to HFD,C57BL/6J mice [3]; [7],33%
same,lower plasma free fatty acid level as compared to HFD,C57BL/6J mice [3]; [7],21%
same,lower plasma total cholesterol level as compared to HFD,C57BL/6J mice [3]; [7],30%
same,lower plasma triglyceride level as compared to HFD,C57BL/6J mice [3]; [7],24%
same,reduction of fasting blood sugar level as compared to HFD,C57BL/6J mice [3]; [7],27%
same,lower plasma HDL cholesterol level as compared to HFD,C57BL/6J mice [3]; group fed with the present composition vs high fat diet group,25%
same,ALT,"C57BL/6J mice [3]; plasma, CSID group, 10 weeks",5.94 ± 0.78^c IU/L
same,AST,"C57BL/6J mice [3]; plasma, CSID group, 10 weeks",6.03 ± 0.28^b IU/L
same,Free fatty acid,"C57BL/6J mice [3]; plasma, CSID group, 10 weeks",685 ± 65.6^b uEq/L
same,HDL cholesterol,"C57BL/6J mice [3]; plasma, CSID group, 10 weeks",0.89 ± 0.04^b mmol/L
same,Total cholesterol,"C57BL/6J mice [3]; plasma, CSID group, 10 weeks",4.57 ± 0.26^b mmol/L
same,Triglyceride,"C57BL/6J mice [3]; plasma, CSID group, 10 weeks",0.68 ± 0.05^b mmol/L
same,LDL + VLDL cholesterol,"C57BL/6J mice [3]; plasma, CSID group, 10 weeks, total cholesterol minus HDL",3.68 ± 0.27^b mmol/L
same,Glucose,"C57BL/6J mice [3]; plasma, fasting, CSID group, 10 weeks",6.51 ± 0.62^b mmol/L
same,decrease of cholesterol level in liver tissue as compared to HFD,C57BL/6J mice [4]; [8],16%
same,decrease of free fatty acid level in liver tissue as compared to HFD,C57BL/6J mice [4]; [8],23%
same,decrease of triglyceride level in liver tissue as compared to HFD,C57BL/6J mice [4]; [8],16%
same,reduction of absolute weight of liver as compared to HFD,C57BL/6J mice [4]; [8],36%
same,reduction of ratio of liver weight to body weight as compared to HFD,C57BL/6J mice [4]; [8],25%
same,Liver weight,C57BL/6J mice [4]; CSID group,1.4 ± 0.14^b g
same,Liver weight (g/100 g body wt),C57BL/6J mice [4]; CSID group,4.0 ± 0.12^b g/100 g body wt
same,Cholesterol,"C57BL/6J mice [4]; liver tissue, CSID group",109.9 ± 2.37^b μmol/g
same,Free fatty acid,"C57BL/6J mice [4]; liver tissue, CSID group",38.6 ± 3.52^b μEq/g
same,Triglyceride,"C57BL/6J mice [4]; liver tissue, CSID group",59.7 ± 2.26^b μmol/g
same,PPARγ2 gene expression (mRNA),PPARγ2,significantly reduced expressions
same,C/EBPα gene expression (mRNA),C/EBPα,significantly reduced expressions
same,aP2 gene expression (mRNA),aP2,significantly reduced expressions
same,HFD-induced elevation in expression of TNF-α,TNF-α,significantly reversed
same,HFD-induced elevation in expression of IL-6,IL-6,significantly reversed
same,HFD-induced decrease in expression of UCP1,UCP1,significantly reversed
same,HFD-induced decrease in expression of UCP3,UCP3,significantly reversed
same,apoptosis by suppressing transportation of drugs from P388 multidrug-resistant cells,[5],induce apoptosis
same,in vitro anti-malaria effects,Plasmodium falciparum,in vitro anti-malaria effects
same,"platelet aggregation, blocking Ca^2+ influx into human platelets",human platelets,inhibits platelet aggregation
same,antihypertensive effects by blocking adrenorceptor and Ca^2+ channels,[6],antihypertensive effects
same,multi-drug resistance of cancer cells through P-glycoprotein binding,P-glycoprotein,improve multi-drug resistance
